{
  "source": "ChEMBL document CHEMBL1126898",
  "about": "(J Med Chem, 1993)",
  "data": [
    {"target": "Sodium-dependent dopamine transporter (Rattus norvegicus, UniProt P23977)", "sequence (P23977 whole entry)": "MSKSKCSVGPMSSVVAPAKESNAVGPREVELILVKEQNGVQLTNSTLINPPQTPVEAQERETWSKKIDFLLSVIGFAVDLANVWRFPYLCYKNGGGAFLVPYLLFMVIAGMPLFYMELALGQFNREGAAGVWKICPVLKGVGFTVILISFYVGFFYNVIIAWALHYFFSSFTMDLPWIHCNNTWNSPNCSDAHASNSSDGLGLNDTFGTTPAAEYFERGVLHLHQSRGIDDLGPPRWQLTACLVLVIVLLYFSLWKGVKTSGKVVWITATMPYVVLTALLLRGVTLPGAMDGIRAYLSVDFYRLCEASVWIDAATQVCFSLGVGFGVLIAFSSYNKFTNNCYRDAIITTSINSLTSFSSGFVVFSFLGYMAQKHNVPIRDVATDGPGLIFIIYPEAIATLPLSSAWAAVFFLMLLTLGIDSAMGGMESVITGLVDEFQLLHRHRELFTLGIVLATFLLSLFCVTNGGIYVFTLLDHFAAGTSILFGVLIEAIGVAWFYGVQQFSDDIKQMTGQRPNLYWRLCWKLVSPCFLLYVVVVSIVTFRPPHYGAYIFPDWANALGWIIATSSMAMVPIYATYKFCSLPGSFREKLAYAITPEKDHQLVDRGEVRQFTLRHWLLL", "assay": "Inhibition of [3H]WIN-35428 binding to dopamine transporter in rat striatal membranes.", "assay_type": "cell membranes, Membrane", "units": {"IC50": "nM"}, "values": [
      {"compound": "CN1C2CCC1C(C(=O)Oc1ccccc1)[C@H](OC(=O)c1ccccc1)C2", "note": "(stereo not given in full)", "IC50": 112},
      {"compound": "CN1C2CCC1C(CO)[C@H](OC(=O)c1ccccc1)C2", "note": "(stereo not given in full)", "IC50": 561},
      {"compound": "COC(=O)C1C2CCC(C[C@H]1OC(=O)c1ccccc1)N2", "note": "(stereo not given in full)", "IC50": 303},
      {"compound": "COC(=O)C1C2CCC(C[C@H]1c1ccc(N)cc1)N2C", "note": "(stereo not given in full)", "IC50": 25},
      {"compound": "CN1C2CCC1C(C(=O)OCCc1ccccc1)[C@H](OC(=O)c1ccccc1)C2", "note": "(stereo not given in full)", "IC50": 248},
      {"compound": "COC(=O)C1C2CCC(C[C@H]1OC(=O)c1ccccc1)N2Cc1ccccc1", "note": "(stereo not given in full)", "IC50": 668},
      {"compound": "COC(=O)[C@H]1C2CCC(C[C@@H]1OC(=O)c1ccccc1)N2", "note": "(stereo in doubt; form 1) [PSEUDOCOCAINE]", "IC50": 22500},
      {"compound": "COC(=O)[C@H]1C2CCC(C[C@@H]1OC(=O)c1ccccc1)N2", "note": "(stereo in doubt; form 2) [PSEUDOCOCAINE]", "IC50": 15800},
      {"compound": "COC(=O)C1C2CCC(C[C@H]1c1ccccc1)N2C", "note": "(stereo not given in full)", "IC50": 23},
      {"compound": "CN1C2CCC1C(C(=O)OCCc1ccc(N)cc1)[C@H](OC(=O)c1ccccc1)C2", "note": "(stereo not given in full)", "IC50": 72}
    ]}
  ]
}
